One data set relates to HPDE6. Nature of the data set: MTT cell viability, HPDE6. The data set is classed as cell-based. Particulars: Homo sapiens; normal cells. The procedure: (§1) Cell viability was measured by Thiazolyl Blue Tetrazolium Blue (MTT) colorimetric assay (Sigma). Cell migration and invasion assays were performed in Transwell chambers (Corning) coated with and without Matrigel (BD Bioscience) respectively. 20% FBS and 0.2 ng/ml EGF were used as chemoattractant. 12 h (migration) or 24 h (invasion) after cells were seeded on top of the membrane, penetrating cells were stained with PI and counted under confocal microscope.

Data set [1] deals with HSA (human serum albumin) (Homo sapiens, UniProt P02768). Kind of data set: Avasimibe binding to HSA: circular dichroism, Trp-214 fluorescence quenching, warfarin competitive binding. The source says:
A quartz cell of 1 mm path length was used for spectrum measurement (190-260 nm). The spectra were collected with a data pitch of 1 nm, a scan speed of 10 nm per minute, and bandwidth of 1 nm. Each spectrum was the average of three scans.
For orientation: CD spectra are sensitive to the conformation of chiral molecules.

Data set [2] can be described thus: Tissue distribution of avasimibe by LC-MS, 2 hr post administration. The data set is classed as in vivo, PC3 tumor xenograft nude mice. Particulars: oral avasimibe 15 mg/kg. The method, then:
To measure the bioavailability of avasimibe in tissues, avasimin solution in PBS (75 mg/kg, containing 15 mg/kg avasimibe) was intravenously administered to PC3 tumor xenograft nude mice (n=3) through the tail vein. avasimibe solution in PBS (15 mg/kg) was also orally administered to PC3 tumor xenograft nude mice (n=3). At 2 hr-post injection, the mice were sacrificed, and the tissues and urine were harvested and weighed. After adding PBS (100 μl per […] tissue), the tissues were homogenized using a bead based homogenizer (Precellys®24, bertin technologies). Avasimibe was extracted from the homogenized tissue solution according to the same procedure used in avasimibe extraction from blood sample. Avasimibe in the tissue, urine, and feces specimens was quantified by LC-MS using the same conditions as the blood-bioavailability study. The amounts of avasimibe were quantitatively determined based on the calibration curve of avasimibe in blood.

The next data set relates to MIA PaCa-2. Kind of data set: MTT cell viability, MIA PaCa-2. It counts as cell-based, human. The procedure: as §1
Another data set has as its system tumors. Kind of data set: Combination of avasimibe and gemcitabine in mice with tumors. The data set is classed as in vivo. Particulars: molar ratio about 5:1 to about 15:1 avasimibe to gemcitabine.
Data set [3] deals with pancreatic cancer cells. Kind of data set: Biochemical assay of free cholesterol in cells. Particulars: low to high concentration. It counts as cell-based, human. The procedure: Lipid extraction from cell pellets and tissues was performed according to Folch et al (Folch J et al. (1957) J Biol Chem 226(1):497-509.). Cells with indicated treatments were collected and counted. CE and free cholesterol were measured according to the manufacturer's protocol (Amplex Red Cholesterol kit from Molecular Probes), and finally normalized by cell number.

The subject of another data set is PC3 cells. Kind of data set: Cell viability IC50 in PC3 cells. It counts as cell-based. Particulars: Homo sapiens, PC-3.
The test system of a further data set is MIA PaCa-2 cells. Kind of data set: Annexin V/propidium iodide staining and cell cycle analysis by flow cytometry. The data set is classed as cell-based, human. In general terms: In flow cytometry, cells or beads pass a laser one at a time.
Data set [4] relates to pancreatic cancer cells. Kind of data set: CE level in pancreatic cancer cells (Raman spectromicroscopy, ESI-MS). It counts as cell-based, human. The procedure: Label-free Raman spectromicroscopy, including stimulated Raman scattering (SRS) microscopy, coherent anti-stokes Raman scattering (CARS) microscopy and spontaneous Raman spectroscopy, was performed on unstained tissue slices (˜15 μm) or cells without any processing or labeling. SRS imaging was conducted using a femtosecond laser source, with the laser beating frequency tuned to the C-H stretching vibration mode at 2845 cm−1. The typical acquisition time for a 512×512 pixel image was 1.12 second.
CARS imaging and confocal Raman spectral analysis from individual LDs were performed on a single platform as described previously (40). A 5-picosecond laser at 707 nm was used as excitation beam for Raman spectral acquisition. Acquisition time for a typical spectra from individual LDs was 20 s, with the beam power maintained around 15 mW at sample. For each specimen, at least 10 spectra from individual LDs in different locations or cells were obtained.
LD amount was quantified based on the SRS images using software ImageJ. […] Area fraction of LDs out of total area of tissues or cells were measured to quantize the LD amount. […] The percentage of CE out of total lipids was used to quantize the CE level.
Lipids were extracted as described above. Cells with indicated treatments were collected and counted. […]

The subject of the next data set is MIA PaCa-2 cell. Nature of the data set: Transwell cell migration and invasion assays. It counts as cell-based, human. The procedure: as §1
Data set [5] in a line: Blood bioavailability / pharmacokinetics of avasimibe by LC-MS. The data set is classed as in vivo, nude mice. Particulars: nude, mouse, whole blood; oral avasimibe 15 mg/kg; read-out: area under curve (AUC) of avasimibe. The procedure:
To compare the blood-bioavailability of avasimibe for oral and intravenous administrations, avasimibe solution in PBS (15 mg/kg) was orally administered to nude mice without tumors (n=3) using a plastic feeding tube (20 GA×38 mm). Avasimin solution in PBS (75 mg/kg, containing 15 mg/kg avasimibe) was intravenously administered to nude mice without tumor (n=3) through the tail vein. Blood samples (2 μl) were collected from the dorsal pedal vein at different time points post administration. […] To extract avasimibe, acetone (6 μl) was added to the blood solution, vortexed, and then the solution was centrifuged (×5000 g, 5 min). The supernatant (6 μl) was collected and dried under vacuum. The sample was stored at −20° C., and dissolved in 50 μl of methanol just before analysis. A linear standard curve of avasimibe in blood ranging of 0.01-100 μg/ml was created using the same extraction method described above. avasimibe concentration was determined using a liquid chromatography-mass spectroscopy (LC-MS) (Agilent 1200 HPLC-Agilent 6460 QQQ mass spec). […]
Based on this model, pharmacokinetic values for avasimibe delivered by intravenous administration of avasimin were determined including the initial volume of distribution, […]
The terminal and distribution half-times for two-compartment model were measured using the equations above, described in a previous report.

A further data set concerns PANC-1. Kind of data set: MTT cell viability, PANC-1. The data set is classed as cell-based, human. The method, then:
as §1

Data set [6] has as its system MIA PaCa-2 orthotopic tumors. Kind of data set: Orthotopic mouse model of pancreatic cancer (MIA PaCa-2 luc/mCherry). It counts as in vivo. The method, then:
In vivo study in orthotopic mouse model: All animal experiments were conducted following protocols approved by Purdue Animal Care and Use Committee (PACUC). NOD/scid/IL2R γ null (NSG) mice were purchased from In Vivo Therapeutics Core at Indiana University Simon Cancer Center (Indiana University, IN) under a Material Transfer Agreement with Jackson Laboratories, Inc. Orthotopic mouse model of pancreatic cancer was established following previously described protocol (Gu D, et al. (2013) Mol Cancer Ther 12(6):1038-1048.). MIA PaCa-2 cells with stable expression of luciferase and mCherry were collected and suspended at a concentration of 10×10^6 cells/ml. A total of 5×10^5 tumor cells in 50 μl medium was directly injected into the pancreas of NSG mice at 4-6 weeks old. After recovery from surgery, tumor growth was monitored by bioluminescent imaging using In Vivo Imaging System (IVIS).
In these studies, mice were randomly divided into two groups. For the treatment with avasimibe at 15 mg/kg, intraperitoneal (IP) injection was used on a daily base, starting one week after tumor cell implantation. After treated for 4 weeks, all the mice were sacrificed. Tumors and metastatic lesions in abdominal cavity, lymph nodes, liver, spleen, kidney, lung and heat were visualized with IVIS by mCherry fluorescent signal. Tumor volume and weight were measured ex vivo. Histological examination was performed to tumor and organ tissue slides after stained with Hematoxylin and eosin (H&E).
Murine paraffin-embedded slides were deparaffinized and rehydrated. Then antigens were retrieved in antigen unmasking solution (Vector Laboratories) with a 2100-Retriever (PickCell Laboratories). Samples were used to TUNEL assay (Roche, 11684817910) according to manufacturer's protocol. Fluorescent images were taken using Nikon A1R confocal microscopy under 40× objective.

The subject of data set [7] is GRP78, ATF4, CHOP in pancreatic cancer cells. Kind of data set: Immunoblotting of ER stress markers. Particulars: time course. It counts as cell-based, human. The method, then:
After indicated treatments, cells were harvested and lysed in AMI lysis buffer (Active Motif) supplemented with protease and phosphatase inhibitor cocktail. Protein concentration was determined using the Bio-Rad protein assay kit. Protein extraction was subjected to immunoblotting with the antibodies against PTEN (Cell Signaling, […]), HMG CoA reductase (Biovision, 3952-100), ACAT-1 (Santa Cruz, sc-69836), GRP78 (Santa Cruz, sc-13968), ATF4 (Cell Signaling, 11815), CHOP (Cell Signaling, 2895), p-ERK1/2 (Cell Signaling, 4370S), ERK1/2 (Cell Signaling, 9102), p-Akt (Cell Signaling, […]), Akt (Cell Signaling, 4691), caveolin-1 (Cell Signaling, […]), SREBP-1 (Santa Cruz, 13551), and β-actin (Sigma, A5441). β-Actin was used as loading control for normalization.
A general note: In western blotting, separated proteins are transferred to a membrane and probed.

In data set [8] the test system is pancreatic cancer cells. Nature of the data set: Fluorescence imaging of DiI labeled LDL uptake. It counts as cell-based, human. The procedure:
DiI labeled LDL was made following previously described method (de Smidt P C & van Berkel T J C (1990) Cancer Res 50(23):7476-7482.). Cells were cultured in medium containing 10% lipodeficient serum with or without avasimibe treatment for 2 days. Then DiI-LDL was added to the medium at 50 μg/ml for 3 hours. Fluorescence images were acquired immediately after 3 h incubation using confocal microscope. The LDL uptake was quantified using ImageJ by analyzing the area fraction of uptake LDL particles out of the total cellular area.

Data set [9] relates to cancer cells (PC3, MIA-PaCa2, A549, HCT116) and normal cells (hVSMC, BR5). Kind of data set: Cell viability of cancer and normal cells. It counts as cell-based, human. Particulars: conventional chemotherapeutics, comparison.
Setting [10] is: 15 mg/kg per day intraperitoneally, 4 weeks.

By IC50 is commonly meant the point on the concentration scale where inhibition reaches its midpoint. A lower IC50 goes with greater potency in that assay. A word on the AUC: it is the area under the concentration-time curve, a measure of exposure.

HSA (human serum albumin), sequence (P02768 25-609): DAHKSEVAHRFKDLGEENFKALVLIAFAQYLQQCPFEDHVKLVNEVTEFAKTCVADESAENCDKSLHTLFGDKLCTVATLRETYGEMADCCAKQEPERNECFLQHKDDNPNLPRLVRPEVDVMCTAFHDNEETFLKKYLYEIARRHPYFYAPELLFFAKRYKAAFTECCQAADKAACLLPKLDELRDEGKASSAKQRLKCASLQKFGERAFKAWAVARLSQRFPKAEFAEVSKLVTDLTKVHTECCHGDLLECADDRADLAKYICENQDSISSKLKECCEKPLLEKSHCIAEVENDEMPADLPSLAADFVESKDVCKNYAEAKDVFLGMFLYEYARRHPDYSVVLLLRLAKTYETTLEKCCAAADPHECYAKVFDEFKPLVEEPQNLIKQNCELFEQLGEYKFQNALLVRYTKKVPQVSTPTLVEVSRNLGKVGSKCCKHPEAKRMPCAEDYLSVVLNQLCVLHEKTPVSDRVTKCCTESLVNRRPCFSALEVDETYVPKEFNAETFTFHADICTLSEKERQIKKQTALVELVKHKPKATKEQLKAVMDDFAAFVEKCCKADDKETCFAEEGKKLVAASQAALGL

On to `CC(C)c1cc(C(C)C)c(CC(=O)NS(=O)(=O)Oc2c(C(C)C)cccc2C(C)C)c(C(C)C)c1` [avasimibe], for which the midpoint of inhibition in the data set on HPDE6, the IC50, lay at 52.8 µM. Further, the “replacement of warfarin at the primary binding site of HSA” value in data set [1] (avasimibe:HSA 16:1, warfarin:HSA 10:1) is on record as “complete replacement of warfarin”. The “binding affinity to HSA, compared with warfarin” value in data set [1] (inferred from complete replacement of warfarin) is over 189000 M⁻¹. Moreover, the “excretion of avasimibe through feces” value in [2] is on record as “considerable amount of avasimibe was excreted through the feces”. Moreover, in data set [2] (2 hr), the “avasimibe in the tumor tissue” value was “not detectable” and the “main tissue of avasimibe distribution” value is “most avasimibe was found in the liver tissue”. Also, in the data set with MIA PaCa-2 (10 μM), the “proliferation rate of MIA PaCa-2 cells” value is “significantly reduced the proliferation rate”. Moreover, half-maximal inhibition with MIA PaCa-2 (Homo sapiens, MIA PaCa-2) (IC50) was put at 11 µM. Also, the “effect in combination with gemcitabine” value in the data set with tumors is “synergistic effect”. Further, the “free cholesterol levels in cells” value in the data set with pancreatic cancer cells [3] was “gradually increased”. The same compound gave an IC50 in the data set with PC3 cells of 17 µM. In addition, the “number of apoptotic cells” value with MIA PaCa-2 cells is “largely increased”. Further, the “CE level in pancreatic cancer cells” value in the data set with pancreatic cancer cells [4] was “effectively removed CE”. For the same compound, in the data set with MIA PaCa-2 cell (transwell with Matrigel, 24 h), the cell invasion rate entry was “significantly reduced”. Moreover, the cell migration rate result in the data set with MIA PaCa-2 cell (transwell, 12 h) is “significantly reduced”. In [5], the AUC came to 3250 ng·h/mL. Also, the “proliferation rate of PANC-1 cells” value with PANC-1 (10 μM) is recorded as “significantly reduced the proliferation rate”. Also, the IC50 in the data set on PANC-1 (Homo sapiens, PANC-1) was 23.6 µM. Further, the “CE amount in tumor (SRS imaging and Raman)” value in [6] (15 mg/kg per day intraperitoneally) is “Reduction of CE amount”. In addition, in [6] (setting [10]), the body weight entry is on record as “did not induce body weight loss”; the “metastatic lesions in lymph nodes and distant organs” value is “largely suppressed”; the “tumor size, tumor growth rate, tumor volume and weight” value is “significantly suppressed”. For the same compound, in data set [6] (mouse, in vivo), the “apoptotic cells in tumor tissues (TUNEL)” value is given as “Increased apoptotic cells” and the “free cholesterol in mouse pancreatic tumor tissues” value was “Increased free cholesterol”. In [7], the ATF4 level entry is listed as “increase of transcription factor ATF4 within 12 hours”; the CHOP expression entry is “appeared after 12 hour treatment and increased from 12 to 48 hour”; the GRP78 expression level result is reported as “gradually increased over time”. Also, the “uptake of DiI labeled LDL” value in the data set on pancreatic cancer cells [8] is on record as “significantly reduced uptake of LDL”.
As to `Nc1ccn([C@@H]2O[C@H](CO)[C@@H](O)C2(F)F)c(=O)n1` [gemcitabine], the “selectivity of cytotoxic effect” value in data set [9] is on record as “non-selective cytotoxic effects”.

The values above are taken from US20160199497A1, “Cholesterol Ester-Depleting Nanomedicine for Non-toxic Cancer Chemotherapy” (Purdue Research Foundation, priority 2014, published 2016).
